Data as given in patent publication US9764014B2, “Use of toll-like receptor ligands as adjuvants to vaccination therapy for brain tumors” (Cedars-Sinai Medical Center, priority 2008, dated 2017).

Tests used:
BMDC = assay: IL-6, TNF-α and IL-12 ELISA of BMDC activated by GL26 lysate vs. TLR ligands; assay type: cell-based, C57BL/6 mice; details: FIG. 9 bottom panel, GL26 lysate plus TLR ligand
Description: Experiments were performed with at least three replicates per condition. As controls for these experiments the inventors utilized brain tissue lysate obtained from healthy C57BL/6 mice and untreated DCs. Furthermore, for each TLR ligand, the inventors utilized up to three different concentrations previously shown to activate dendritic cells in order to identify the best concentration for maximal activation of BMDC. […] However, TLR ligands alone consistently promote increases the dependent variables measured to a greater degree than TLR ligands with tumor lysate. However, it is likely that activation by TLR ligands alone would not prime T cells to be tumor antigen specific. […] Therefore, ELISA on BMDC treated with GL26 lysate and individual TLR ligands were performed as described above. […] TNF-α and IL-12 (FIG. 9).
Primary BMDCs were isolated from the femurs of 6-10 week old C57BL/6 mice and cultured in RPMI cell culture media with GM-CSF (1000 IU/ML) and IL-4 (1000 IU/ML). BMDCs (1×10^6 cells/ml) were maintained in cell culture at 37° C., 5% CO2 and exposed to with […] GL26 freeze-thaw lysate and either TLR2 ligand (Pam3Cys, 50 μg/ml), TLR4 ligand (LPS 50 ng/ml), or TLR9 ligand (CpG ODN 1826, 5 μM) overnight (ON). Control cells were treated with […] GL26 freeze-thaw lysate only. […]

primary BMDC = assay: IL-6 ELISA from primary BMDC derived from MyD88−/− and littermate controls; assay type: cell-based, mice; details: MyD88−/− DC compared to BMDC from wild-type littermate controls; LPS 100 ng/ml or 10 ng/ml with GL26 lysate
Description: Briefly, BMDCs were cultured in 24-well plates at 3×10^5 cells/ml and exposed to TLR ligands and lysate for 24 hours. Cell culture media were collected for ELISA analysis against IL-6, TNF-α and IL-12. Three independent experiments with at least three replicates per experiment were performed.
While the inventors provide evidence that GL26 tumor cells and TLR ligands activate primary BMDC. […] It is possible that the GL26 tumor cell activation is signaling through TLRs or at least through downstream signaling molecule MyD88. Therefore, primary dendritic cells from MyD88−/− and Wild-type controls were isolated and exposed to GL26 lysate and TLR ligand LPS at 100 ng/ml or 10 ng/ml. The inventors believe that LPS activation in MyD88−/− DC will not show up-regulation of secreted IL-6 protein as measured by ELISA. […] Furthermore, no significant difference exists between MyD88−/− and wild-type derived BMDC exposed to brain lysate (FIG. 10).
Primary BMDCs were isolated from the bone marrow of femurs of euthanized MyD88−/− and their +/+ littermate controls as described above. BMDCs were activated using 1) GL26 tumor lysate alone; 2) TLR ligands (Pam3cys (50 μg/ml) or LPS (50 ng/ml) or CpG ODN (5 μM) and tumor lysate for each; 3) Treatment of DCs with brain lysate alone may also serves as a control condition.

[1] = system: primary dendritic cells from MyD88−/− and wild-type controls; assay: ELISA for TNF-alpha in primary DC treated with LPS; assay type: cell-based, mice
Excerpt: While the inventors provide evidence that GL26 tumor cells and TLR ligands activate DC2.4 cells, it is unknown if GL26 lysate activation is signaling through MyD88−/− and/or TRIF dependent pathways. It is possible that the GL26 tumor cell activation is signaling through TLRs or at least through downstream signaling molecules MyD88 and/or TRIF. Therefore, the inventors isolated primary dendritic cells from MyD88−/− and wild-type controls and exposed them to GL26 lysate and TLR ligand LPS. The inventors believe that LPS activation in MyD88−/− DC will not show up-regulation of TNF-alpha protein as measured by ELISA.

| Substance | IL-12 protein production (BMDC) | IL-6 secreted protein levels by ELISA (primary BMDC) | TNF-alpha protein by ELISA ([1]; MyD88−/− DC) | TNF-alpha protein by ELISA ([1]; wild-type DCs, compared to controls) |
| --- | --- | --- | --- | --- |
| Pam3cys | relatively limited increases | – | – | – |
| lipopolysaccharide [LPS] | – | reduced | no up-regulation | significant up-regulations |
